# Laboratory results: US20050250837A1, “Use of C-Raf inhibitors for the treatment of neurodegenerative diseases” (priority 2002, published 2005)
# Experiments:
# C-Raf [1] = target: T1, C-Raf (Rattus norvegicus, UniProt P11345); assay: C-Raf Ser259 phosphorylation in neuronal cultures, Western blot; format: cell-based; settings: LK + 1 uM GW5074, 0-30 min
# T1 construct: Activities of endogenous C-Raf and B-Raf activity was assayed by measuring the ability of kinase immunoprecipitated from neuronal lysates; endogenous in cells; host or cells: primary rat cerebellar granule neurons
# Experimental: The cultures were lysed and the lysate subjected to Western blot analysis using a phopho-Ser259-specific antibody.
# For whole-cell lysates, the culture medium was discarded, the neurons washed twice with ice-cold phosphate-buffered saline (PBS), and lysed in lysis buffer (1% Triton, 20 mM Tris-HCl (pH 7.5), 150 mM NaCl, 1 mM Na2EDTA, 1 mM EGTA, 2.5 mM sodium pyrophosphate, 1 mM beta-glycerophosphate, 1 mM Na3VO4, 1 μg/ml leupeptin and 1× protease inhibitor mixture). Protein concentrations were measured using a Bradford protein assay kit (Bio-Rad), and equivalent amounts of protein were mixed with 6×SDS-PAGE sample buffer. Following heating at 95° C. for 5 min, proteins were subjected to SDS-polyacrylamide gel electrophoresis and transferred electrophoretically to polyvinylidene difluoride membrane (PVDF; Bio Rad). After staining with Ponceau S to verify uniformity of protein loads/transfer, the membranes were analyzed for immunoreactivity. Incubation with primary antibodies was performed overnight at 4° C. and with secondary antibodies for 1 h at room temperature. Immunoreactivity was developed by enhanced chemiluminescence (ECL; Amersham) and visualized by autoradiography. All antibodies were from Cell Signaling.
# mice = assay: 3-Nitropropionic acid (3-NP) model of Huntington's disease, striatal lesions; format: in vivo; settings: GW5074 5 mg/kg body weight intraperitoneally
# Description: 3-Nitropropionic acid (3-NP) administration in rodents and nonhuman primates has served as a useful experimental model for HD (reviewed in Brouillet et al., 1999). 3-NP is an irreversible inhibitor of succinate dehydrogenase (SDH; Complex II), which causes prolonged mitochondrial energy impairment and replicates most of the clinical and pathophysiological hallmarks of HD including selective striatal degeneration, spontaneous choreiform and dystonic movements (Brouillet et al., 1999).
# Mice were purchased from Charles River (Wilmington, Mass.). 3-NP was dissolved in water and the solution brought to pH 7.4 with sodium hydroxide. 3NP was administered to 8-week old B6CBA male mice in ten intraperitoneal injections (50 mg/kg twice a day for 5 days). […] Control animals received saline injections. On the day following the 5 days of injection, mice were deeply anesthetized, intracardially perfused, brains removed, post fixed in 4% paraformaldehyde and cryoprotected. Coronal sections were cut on a cryostat at 50 micron and stained for Nissl substance (cresyl violet).
# C-Raf [2] = target: T1, C-Raf; assay: Activity of C-Raf immunoprecipitated from neuronal lysates, GST-MEK substrate, phospho-MEK Western; format: cell-based
# Experimental: The immunoprecipitated C-Raf was used in in vitro kinase assays using GST-MEK as substrate and the reaction products subjected to Western analysis. Phosphorylation of MEK was detected using a phospho-MEK antibody. […] After 1 hour of treatment, the cultures were lysed, C-Raf immunoprecipitated from the lysate and used in an in vitro kinase assay with MEK as substrate. The reaction mixture was subjected to Western analysis using a phospho-MEK antibody as probe.
# (Hall-Jackson et al., 1999). […] Lysates from the cultures were used in a kinase reaction with MEK as substrate. […] Phosphorylation of MEK was detected by Western blot analysis using an phospho-MEK antibody and the same blot was reprobed with a C-Raf antibody.
# After treatment, cultures of 7-8-day old neurons were washed twice with ice-cold PBS and lysed in ice cold lysis buffer. The lysates were centrifuged for 10 min at 10,000 rpm at 4° C. Protein concentrations of the supernatant were measured using a Bradford protein assay kit (Bio-Rad), and equivalent amounts of protein were incubated overnight with primary antibody (1.0-2 ug) and then for 2 h with 20 ul Protein A/G PLUS-Agarose (Santa Cruz Biotech.) Immunoprecipitates were collected by centrifugation at 2,500 rpm for 5 min at 4° C. and washed three times with lysis buffer, and pellets resuspended in electrophoresis sample buffer (187.5 mM Tris-HCl (pH 6.8 at 25° C.), 6% SDS, 30% glycerol, 150 mM DTT, 0.03% bromophenol blue), boiled for 4 min and subjected to SDS-polyacrylamide gel electrophoresis.
# Activities of endogenous C-Raf and B-Raf activity was assayed by measuring the ability of kinase immunoprecipitated from neuronal lysates to phosphorylate a kinase-dead recombinant GST-MEK1 substrate. Following immunoprecipitation and multiple washes with lysis buffer, lysis buffer supplemented with 350 mM NaCl, and kinase buffer (25 mM HEPES pH 7.4 and 10 mM MgCl2), in vitro kinase assays are performed on the immune complexes using purified recombinant GST-MEK1 K97M protein as a substrate in kinase buffer supplemented with 85 μM ATP for 35 minutes at 30° C. Reactions are stopped by the addition of 3×SDS sample buffer and boiled for five minutes. Proteins are resolved by SDS-PAGE and subjected to Western blotting. The level of phosphorylated MEK is detected by a phospho-MEK antibody.
# p38 MAP kinase = p38 MAP kinase (Homo sapiens, UniProt Q16539); settings: Lackey et al., 2000; cited from earlier work
# C-Raf [3] = target: C-Raf (Homo sapiens, UniProt P04049); assay: In vitro kinase assay, purified kinase (Upstate Kinase Profiling); format: biochemical
# Experimental: In general, in vitro kinase assays were performed using purified kinase and synthetic substrates under standard conditions using the Kinase Profiling service of Upstate Biotechnology. Briefly, for each assay 5-10 mU of purified kinase was used. […] Kinase activity was quantified by measuring ^33P incorporation by spotting an aliquot on P30 filters, washing in 50 mM phosphoric acid and scintillation counting. The buffer composition for C-Raf, JNK1, JNK2, JNK3, MEK1, MKK6, MKK7 was 50 mM Tris pH7.5, 0.1 mM EGTA, 10 mM Mg acetate and [γ-^33P-ATP]. The peptide substrates used were as follows: For C-Raf, 0.66 mg/ml MBP; for cdks, 0.1 mg/ml histone H1; for JNKs, 3 uM ATF2; for MEK1, 1 uM MAPK2; for MKK6, 1 uM of SAPK2a and for MKK7, 2 uM JNK1α.
# c-src = c-src (Homo sapiens, UniProt P12931); settings: Lackey et al., 2000; cited from earlier work
# [4] = test system: cerebellar granule neurons; assay: LK-induced apoptosis of cultured cerebellar granule neurons (MTT viability); format: cell-based, rat
# Experimental: Cultured cerebellar granule neurons undergo apoptosis when switched from HK to medium containing LK (D'Mello et al., 1993). […] Neuronal cultures were switched to medium containing LK, or LK medium containing different doses of GW5074. Cell viability was quantified 24 hours later. Control cultures received HK medium. […] Protection against LK-induced apoptosis is maximal at 1 uM.
# Granule neuron cultures were obtained from dissociated cerebella of 7-8 day old rats as described previously (D'Mello et al., 1993). Cells were plated in Basal Eagle's Medium with Earles salts (BME) supplemented with 10% fetal bovine serum (FBS), 25 mM KCl, 2 mM glutamine (Gibco-BRL), and 100 ug/ml gentamycin on dishes coated with poly-L-lys ine in 24-well dishes at a density 1.0×10^6 cells/well, 1.2×10^7 cells/60 mm dish, or 3.0×10^7 cells/100 mm dish. Cytosine arabinofuranoside (10 uM) was added to the culture medium 18-22 hours after plating to prevent replication of non-neuronal cells. Cultures were maintained for 6-7 days prior to experimental treatments. For this, the cells were rinsed once and then maintained in low K^+ medium (serum-free BME medium, 5 mM KCl) or high K^+ medium (serum-free BME medium, supplemented with 20 mM KCl). When used to treat cultures, GW5074 was added at the time when cells were switched to LK medium. Treatment of cultures with pharmacological inhibitors was initiated 15 min prior to rinsing and was maintained through the subsequent incubation in LK or HK medium unless specified otherwise. For MPP+ and methylmercury treatments, 7-8 day old cultures were switched to HK medium containing 200 uM MPP+ or 0.5 uM methylmercury. Viability was assayed 24 hours later.
# Neuronal survival was quantified by the MTT assay as previously described (Koulich et al., 2001). Briefly, the tetrazolium salt MTT [3-(4,5-dimethyl-2-thiazolyl)-2,5-diphenyl-2H tetrazolium bromide] was added to the cultures at a final concentration of 1 mg/ml, and incubation of the culture was continued in the CO2 incubator for a further 30 min at 37° C. The assay was stopped by adding lysis buffer [20% SDS in 50% N,N-dimethyl formamide, pH 4.7]. The absorbance was measured specrophotometrically at 570 nm after an overnight incubation at room temperature. The absorbance of a well without cells was used as background and subtracted. Results obtained using the MTT assays were confirmed using the fluorescein-diacetate method for quantification of cell viability, as previously described (D'Mello et al., 1993). Data are presented as mean+/−standard deviation. Statistical analysis was performed using ANOVA and Student-Neuman-Keuls' test.
# T1 sequence (P11345 whole entry): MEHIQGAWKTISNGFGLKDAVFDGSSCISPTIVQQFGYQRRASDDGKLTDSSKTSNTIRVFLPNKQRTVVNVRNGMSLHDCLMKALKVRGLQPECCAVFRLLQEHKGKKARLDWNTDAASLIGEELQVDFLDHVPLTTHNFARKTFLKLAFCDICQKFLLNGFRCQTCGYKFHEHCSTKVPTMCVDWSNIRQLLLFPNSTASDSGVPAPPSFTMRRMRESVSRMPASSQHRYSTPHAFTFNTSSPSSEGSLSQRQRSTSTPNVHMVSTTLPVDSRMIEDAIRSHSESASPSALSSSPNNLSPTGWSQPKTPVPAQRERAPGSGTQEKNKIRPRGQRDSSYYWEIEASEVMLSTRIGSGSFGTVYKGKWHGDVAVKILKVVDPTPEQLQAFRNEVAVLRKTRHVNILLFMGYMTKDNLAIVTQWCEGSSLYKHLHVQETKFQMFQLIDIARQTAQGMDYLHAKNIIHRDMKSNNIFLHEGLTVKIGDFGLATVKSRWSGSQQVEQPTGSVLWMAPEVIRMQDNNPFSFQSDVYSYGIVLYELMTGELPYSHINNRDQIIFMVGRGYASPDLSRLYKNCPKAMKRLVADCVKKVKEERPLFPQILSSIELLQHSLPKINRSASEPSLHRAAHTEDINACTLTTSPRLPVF
# Sequence of p38 MAP kinase (Q16539 whole entry): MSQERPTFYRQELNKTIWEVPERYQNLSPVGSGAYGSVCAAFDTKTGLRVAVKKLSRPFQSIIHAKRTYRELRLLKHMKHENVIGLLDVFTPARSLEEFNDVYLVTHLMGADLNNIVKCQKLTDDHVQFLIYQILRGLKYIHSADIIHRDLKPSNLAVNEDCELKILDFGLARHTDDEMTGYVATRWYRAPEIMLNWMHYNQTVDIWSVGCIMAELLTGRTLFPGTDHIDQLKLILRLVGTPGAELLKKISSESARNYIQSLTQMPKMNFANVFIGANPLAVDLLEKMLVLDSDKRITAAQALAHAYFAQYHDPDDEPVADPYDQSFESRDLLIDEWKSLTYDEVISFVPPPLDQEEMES
# Sequence of c-src (P12931 whole entry, species assumed): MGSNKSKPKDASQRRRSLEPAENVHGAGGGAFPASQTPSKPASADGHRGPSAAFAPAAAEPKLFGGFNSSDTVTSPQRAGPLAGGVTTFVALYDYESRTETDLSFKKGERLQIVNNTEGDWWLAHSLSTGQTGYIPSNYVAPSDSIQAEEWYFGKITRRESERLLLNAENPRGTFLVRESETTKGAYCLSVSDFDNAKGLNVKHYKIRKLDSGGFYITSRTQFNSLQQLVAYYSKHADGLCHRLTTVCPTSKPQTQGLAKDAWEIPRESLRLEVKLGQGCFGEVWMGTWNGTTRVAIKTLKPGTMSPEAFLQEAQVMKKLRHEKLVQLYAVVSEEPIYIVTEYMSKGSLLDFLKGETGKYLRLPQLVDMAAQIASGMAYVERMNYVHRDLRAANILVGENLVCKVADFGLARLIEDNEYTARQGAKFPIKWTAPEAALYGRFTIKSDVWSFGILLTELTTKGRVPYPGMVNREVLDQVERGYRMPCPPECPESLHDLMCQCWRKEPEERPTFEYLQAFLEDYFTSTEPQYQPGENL
# Sequence of C-Raf (Homo sapiens, UniProt P04049) (P04049 whole entry, species assumed): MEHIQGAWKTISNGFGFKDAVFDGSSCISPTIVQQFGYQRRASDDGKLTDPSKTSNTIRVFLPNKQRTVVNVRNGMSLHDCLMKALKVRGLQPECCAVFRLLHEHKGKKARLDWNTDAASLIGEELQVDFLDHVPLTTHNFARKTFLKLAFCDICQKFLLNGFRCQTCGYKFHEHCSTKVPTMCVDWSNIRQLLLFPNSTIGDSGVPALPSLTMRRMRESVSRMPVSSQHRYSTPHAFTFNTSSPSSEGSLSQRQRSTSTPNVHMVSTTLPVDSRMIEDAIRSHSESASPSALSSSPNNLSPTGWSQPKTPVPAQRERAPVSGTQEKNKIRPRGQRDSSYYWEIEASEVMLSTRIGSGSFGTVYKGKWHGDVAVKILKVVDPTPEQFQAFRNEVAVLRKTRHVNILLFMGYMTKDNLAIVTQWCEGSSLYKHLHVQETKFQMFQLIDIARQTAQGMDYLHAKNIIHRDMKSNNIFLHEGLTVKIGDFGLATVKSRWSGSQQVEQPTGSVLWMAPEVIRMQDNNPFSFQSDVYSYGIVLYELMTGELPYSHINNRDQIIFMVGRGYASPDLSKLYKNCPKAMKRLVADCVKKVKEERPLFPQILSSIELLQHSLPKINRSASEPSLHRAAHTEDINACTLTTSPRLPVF
structure (smiles),measurement,setting,value
"O=C1Nc2ccc(I)cc2C1=Cc1cc(Br)c(O)c(Br)c1 [GW5074, 5-Iodo-3-[(3,5-dibromo-4-hydroxyphenyl)methylene]-2-indolinone]",phosphorylation of C-Raf at Ser259,C-Raf [1],rapid increase in Ser259 phosphorylation
same,3-NP-induced striatal degeneration,mice,completely prevented
same,concentration inhibiting immunoprecipitated C-Raf when added in vitro,C-Raf [2]; GW5074 added to the immunoprecipitated enzyme in the kinase reaction,lower than 1 uM
same,activity of C-Raf immunoprecipitated from treated cultures,"C-Raf [2]; LK + GW5074 0.25-5 uM, 1 hour",marked induction
same,effect on activity of p38 MAP kinase,p38 MAP kinase,no effect
same,activity at 1 µM,C-Raf [3],3%
same,effect on activity of c-src,c-src,no effect
same,neuroprotection against LK-induced apoptosis,[4]; 5 uM and 10 uM,Neuroprotection by GW5074 is also observed
same,protection against LK-induced apoptosis,"[4]; LK + 1 uM GW5074, 24 hours",prevents LK-induced apoptosis
same,concentration of maximal protection against LK-induced apoptosis,[4]; viability 24 hours after switch to LK,1 µM
